In the supplement of paper PMC10307832:

Assays:
Assay in all cases: relative viability (nuclei count vs DMSO), 5 days (fraction); higher = more cells survive
[1] = compound: Cn1cc(-c2cnn3c(N)c(Br)c([C@@H]4CCCNC4)nc23)cn1 + O=C(c1cc(Cc2n[nH]c(=O)c3ccccc23)ccc1F)N1CCN(C(=O)C2CC2)CC1 [Olaparib] (partner 8 µM)
Outline: (§1)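 Lung cancer cell lines were pin-tool dosed in 1536-well plates on the day after seeding, with either a lone drug or a fixed anchor-drug dose plus five library-drug doses (not always all listed) in √10 steps. Nuclei were counted on 4× images after 5 days. Relative viability is the ratio of treated-well to vehicle-well nuclei counts, with each value a median of duplicate plates.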

[2] = compound: Cn1cc(-c2cnn3c(N)c(Br)c([C@@H]4CCCNC4)nc23)cn1 + NC(=O)Nc1cc(-c2cccc(F)c2)sc1C(=O)N[C@H]1CCCNC1 [AZD7762] (partner 0.2 µM)
Outline: as §1

[3] = compound: Cn1cc(-c2cnn3c(N)c(Br)c([C@@H]4CCCNC4)nc23)cn1 + CS(=O)(=O)CCNCc1ccc(-c2ccc3ncnc(Nc4ccc(OCc5cccc(F)c5)c(Cl)c4)c3c2)o1 [Lapatinib] (partner 2 µM)
Outline: as §1

[4] = compound: Cn1cc(-c2cnn3c(N)c(Br)c([C@@H]4CCCNC4)nc23)cn1 + Nc1ncn([C@H]2C[C@H](O)[C@@H](CO)O2)c(=O)n1 [Decitabine] (partner 2 µM)
Outline: as §1

Row | Cell Line | relative viability ([1]; first compound 0.05 µM) | relative viability ([1]; first compound 0.1581 µM) | relative viability ([1]; first compound 0.5 µM) | relative viability ([1]; first compound 1.581 µM) | relative viability ([1]; first compound 5 µM) | relative viability ([2]; first compound 0.05 µM) | relative viability ([2]; first compound 0.1581 µM) | relative viability ([2]; first compound 0.5 µM) | relative viability ([2]; first compound 1.581 µM) | relative viability ([2]; first compound 5 µM) | relative viability ([3]; first compound 0.05 µM) | relative viability ([3]; first compound 0.1581 µM) | relative viability ([3]; first compound 0.5 µM) | relative viability ([3]; first compound 1.581 µM) | relative viability ([3]; first compound 5 µM) | relative viability ([4]; first compound 0.05 µM) | relative viability ([4]; first compound 0.1581 µM) | relative viability ([4]; first compound 0.5 µM) | relative viability ([4]; first compound 1.581 µM) | relative viability ([4]; first compound 5 µM)
1 | HCC-827 | 0.707 | 0.622 | 0.766 | 0.628 | 0.339 | 0.183 | 0.188 | 0.193 | 0.211 | 0.17 | 0.234 | 0.197 | 0.196 | 0.178 | 0.152 | 0.34 | 0.38 | 0.339 | 0.361 | 0.305
2 | HOP-62 | 0.321 | 0.262 | 0.208 | 0.241 | 0.199 | 0.526 | 1.06 | 0.622 | 0.534 | 0.271 | 1.05 | 1.27 | 1.08 | 0.896 | 0.792 | 0.252 | 0.2 | 0.191 | 0.239 | 0.269
3 | IA-LM | 0.964 | 0.932 | 0.902 | 0.643 | 0.358 | – | – | – | – | – | 0.927 | 0.624 | 0.581 | 0.44 | 0.225 | – | – | – | – | –
4 | LC-2-ad | 0.753 | 0.686 | 0.648 | 0.727 | 0.726 | 0.841 | 0.949 | 0.819 | 0.805 | 0.881 | 1.02 | 1.04 | 0.923 | 0.754 | 0.925 | 0.856 | 0.811 | 0.856 | 0.781 | 0.908
5 | LCLC-103H | 0.842 | 0.804 | 0.77 | 0.746 | 0.711 | 0.834 | 0.914 | 0.728 | 0.738 | 0.685 | – | – | – | – | – | 0.745 | 0.73 | 0.809 | 0.695 | 0.816
6 | NCI-H441 | 0.672 | 0.697 | 0.494 | 0.37 | 0.43 | 1.27 | 1.32 | 1.05 | 1.1 | 0.956 | – | – | – | – | – | 0.257 | 0.249 | 0.26 | 0.22 | 0.257
7 | NCI-H520 | 0.353 | 0.367 | 0.302 | 0.326 | 0.236 | – | – | – | – | – | 0.819 | 0.685 | 0.649 | 0.705 | 0.707 | 0.528 | 0.543 | 0.57 | 0.527 | 0.306
8 | NCI-H522 | 0.674 | 0.749 | 0.68 | 0.523 | 0.633 | 0.616 | 0.812 | 0.882 | 0.763 | 0.748 | – | – | – | – | – | 0.675 | 0.619 | 0.664 | 0.669 | 0.642
9 | NCI-H661 | 0.874 | 0.83 | 0.745 | 0.511 | 0.538 | – | – | – | – | – | 0.441 | 0.503 | 0.518 | 0.48 | 0.324 | 0.551 | 0.578 | 0.529 | 0.462 | 0.373
10 | NCI-H1563 | – | – | – | – | – | – | – | – | – | – | 0.941 | 0.861 | 0.888 | 0.859 | 0.888 | – | – | – | – | –
11 | NCI-H1648 | 0.64 | 0.829 | 1.1 | 1.08 | 0.583 | 0.607 | 0.635 | 0.717 | 0.649 | 0.637 | – | – | – | – | – | 0.383 | 0.483 | 0.487 | 0.467 | 0.504
12 | NCI-H1650 | 0.625 | 0.82 | 0.851 | 0.616 | 0.444 | – | – | – | – | – | 0.854 | 0.882 | 0.711 | 0.64 | 0.428 | 0.445 | 0.478 | 0.373 | 0.445 | 0.3
13 | NCI-H1703 | 0.416 | 0.364 | 0.364 | 0.233 | 0.123 | 0.0942 | 0.119 | 0.139 | 0.102 | 0.098 | 1.18 | 0.454 | 0.481 | 0.205 | 0.124 | – | – | – | – | –
14 | NCI-H2009 | 0.685 | 0.749 | 0.714 | 0.872 | 0.595 | – | – | – | – | – | 0.975 | 1.06 | 0.865 | 0.798 | 0.794 | 0.384 | 0.369 | 0.377 | 0.37 | 0.387
15 | NCI-H2023 | 0.473 | 0.336 | 0.253 | 0.253 | 0.139 | – | – | – | – | – | 0.978 | 0.739 | 0.416 | 0.258 | 0.127 | 0.228 | 0.219 | 0.21 | 0.167 | 0.127
16 | NCI-H2228 | 0.546 | 0.688 | 0.675 | 0.508 | 0.359 | – | – | – | – | – | 1.54 | 1.14 | 1.2 | 0.493 | 0.378 | – | – | – | – | –
17 | NCI-H2342 | 0.467 | 0.585 | 0.448 | 0.463 | 0.438 | 0.493 | 0.491 | 0.542 | 0.487 | 0.29 | – | – | – | – | – | 0.728 | 0.731 | 0.696 | 0.639 | 0.742
18 | SK-LU-1 | 0.515 | 0.308 | 0.31 | 0.246 | 0.226 | – | – | – | – | – | 0.871 | 0.585 | 0.758 | 0.321 | 0.19 | 0.788 | 0.586 | 0.537 | 0.363 | 0.255
19 | SK-MES-1 | 0.879 | 0.596 | 0.441 | 0.34 | 0.2 | – | – | – | – | – | 0.491 | 0.544 | 0.514 | 0.392 | 0.431 | 0.356 | 0.413 | 0.336 | 0.355 | 0.204
20 | SW 900 | 0.897 | 0.97 | 0.758 | 0.8 | 0.616 | 0.607 | 0.618 | 0.572 | 0.547 | 0.465 | – | – | – | – | – | 0.383 | 0.409 | 0.418 | 0.42 | 0.595
21 | SW 1573 | 0.476 | 0.562 | 0.44 | 0.401 | 0.457 | – | – | – | – | – | 1.14 | 1.22 | 1.15 | 1.01 | 1.1 | 0.567 | 0.498 | 0.455 | 0.462 | 0.517
22 | UMC-11 | 0.429 | 0.399 | 0.41 | 0.381 | 0.34 | – | – | – | – | – | 1.09 | 1 | 0.699 | 0.624 | 0.463 | 0.692 | 0.536 | 0.689 | 0.492 | 0.373
